# Earlier results, collected in PubChem BioAssay AID1259409 (Chemical Carcinogenesis Research Information System (CCRIS), 2018).
# Test system: rodent chemically induced tumor inhibition, incidence and multiplicity
# Experiment: CCRIS tumor inhibitor studies
# Settings: Carcinogen: BENZO[A]PYRENE; 50-32-8; Dose [Inhibitor]: 0.03 MMOL/G OF DIET DAILY STARTING 7 D BEFORE AND CONTINUING THROUGH 3 D AFTER CARCINOGEN TREATMENT FOLLOWED BY OBSERVAT; Route [Inhibitor]: ORAL; Species: MOUSE; Strain/Sex: ICR/FEMALE; Target Tissue: Type of Lesion: FORESTOMACH: NEOPLASM; Dose [Carcinogen]: 1 MG IN 0.2 ML CORN OIL 2/WK FOR 4 WK; Promoter: NONE USED
compound,measurement,value
CC(C)(C)c1cc(COCc2cc(C(C)(C)C)c(O)c(C(C)(C)C)c2)cc(C(C)(C)C)c1O,"tumour outcome (control, treated, inhibition, significance)","94%, 95%, -1%, not significant"
